Experimental data reported in ChEMBL document CHEMBL3603789, “N-Lipidated Peptide Dimers: Effective Antibacterial Agents against Gram-Negative Pathogens through Lipopolysaccharide Permeabilization” (J Med Chem, 2015).
Converted amounts (≈) assume the structure as drawn. Peptide text beside a SMILES is read from it. * marks the point of attachment. Myristoyl = CCCCCCCCCCCCCC(=O)*; Lauroyl = CCCCCCCCCCCC(=O)*; Decanoyl = CCCCCCCCCC(=O)*; Hexanoyl = CCCCCC(=O)*; Butyryl = CCCC(=O)*

Experiments:
Escherichia coli = experiment: Antibacterial activity against Escherichia coli ATCC 25922 after 24 hrs by broth microdilution method; format: functional; settings: ATCC 25922, 24 h
[1] = Toxicity in New Zealand white rabbit erythrocytes assessed as hemolytic activity after 60 mins; format: cell-based, Oryctolagus cuniculus; settings: erythrocyte, 1 h
Klebsiella pneumoniae = experiment: Antibacterial activity against Klebsiella pneumoniae DM4299 after 24 hrs by broth microdilution method; format: functional; settings: DM4299, 24 h
Pseudomonas aeruginosa = experiment: Antibacterial activity against Pseudomonas aeruginosa DM23155 after 24 hrs by broth microdilution method; format: functional; settings: DM23155, 24 h

Row | Structure (SMILES) | MIC (Escherichia coli) [µM] | HC10 [1] [µg/mL] | MIC (Klebsiella pneumoniae) [µM] | MIC (Pseudomonas aeruginosa) [µM]
1 | CCCC(=O)N[C@@H](CCCNC(=N)N)C(=O)NCC(=O)N[C@@H](CCCNC(=N)N)C(=O)N[C@@H](CCCCN)C(=O)N[C@H](C(=O)N[C@H](C(=O)N[C@@H](CCCNC(=N)N)C(=O)N[C@@H](CCCNC(=N)N)C(=O)N[C@@H](CCCCN)C(=O)N[C@@H](CCCCN)C(=O)O)C(C)C)C(C)C (Butyryl-RGRKVVRRKK-OH) | 40 (≈ 54.1 µg/mL) | > 10000 | > 80 | > 80
2 | CCCCCCCCCCCCCC(=O)N[C@@H](CCCNC(=N)N)C(=O)NCC(=O)N[C@@H](CCCNC(=N)N)C(=O)N[C@@H](CCCCN)C(=O)NCC(=O)NCC(=O)N[C@@H](CCCNC(=N)N)C(=O)N[C@@H](CCCNC(=N)N)C(=O)N[C@@H](CCCCN)C(=O)N[C@@H](CCCCN)C(=O)O (Myristoyl-RGRKGGRRKK-OH) | 6 (≈ 8.45 µg/mL) | 6670 | 10 (≈ 14.1 µg/mL) | 6 (≈ 8.45 µg/mL)
3 | CCCCCC(=O)N[C@@H](CCCNC(=N)N)C(=O)NCC(=O)N[C@@H](CCCNC(=N)N)C(=O)N[C@@H](CCCCN)C(=O)N[C@H](C(=O)N[C@H](C(=O)N[C@@H](CCCNC(=N)N)C(=O)N[C@@H](CCCNC(=N)N)C(=O)N[C@@H](CCCCN)C(=O)N[C@@H](CCCCN)C(=O)O)C(C)C)C(C)C (Hexanoyl-RGRKVVRRKK-OH) | 10 (≈ 13.8 µg/mL) | > 10000 | 80 (≈ 110 µg/mL) | 80 (≈ 110 µg/mL)
4 | CCCC(=O)N[C@@H](CCCNC(=N)N)C(=O)NCC(=O)N[C@@H](CCCNC(=N)N)C(=O)N[C@@H](CCCCN)C(=O)NCC(=O)NCC(=O)N[C@@H](CCCNC(=N)N)C(=O)N[C@@H](CCCNC(=N)N)C(=O)N[C@@H](CCCCN)C(=O)N[C@@H](CCCCN)C(=O)O (Butyryl-RGRKGGRRKK-OH) | 40 (≈ 50.7 µg/mL) | > 10000 | 80 (≈ 101 µg/mL) | 80 (≈ 101 µg/mL)
5 | CCCCCCCCCCCCCC(=O)N[C@@H](CCCNC(=N)N)C(=O)NCC(=O)N[C@@H](CCCNC(=N)N)C(=O)N[C@@H](CCCCN)C(=O)N[C@H](C(=O)N[C@H](C(=O)N[C@@H](CCCNC(=N)N)C(=O)N[C@@H](CCCNC(=N)N)C(=O)N[C@@H](CCCCN)C(=O)N[C@@H](CCCCN)C(=O)O)C(C)C)C(C)C (Myristoyl-RGRKVVRRKK-OH) | 6 (≈ 8.96 µg/mL) | 8897 | 6 (≈ 8.96 µg/mL) | 10 (≈ 14.9 µg/mL)
6 | CCCCCCCCCC(=O)N[C@@H](CCCNC(=N)N)C(=O)NCC(=O)N[C@@H](CCCNC(=N)N)C(=O)N[C@@H](CCCCN)C(=O)NCC(=O)NCC(=O)N[C@@H](CCCNC(=N)N)C(=O)N[C@@H](CCCNC(=N)N)C(=O)N[C@@H](CCCCN)C(=O)N[C@@H](CCCCN)C(=O)O (Decanoyl-RGRKGGRRKK-OH) | 10 (≈ 13.5 µg/mL) | > 10000 | 20 (≈ 27.1 µg/mL) | 10 (≈ 13.5 µg/mL)
7 | N=C(N)NCCC[C@H](NC(=O)CNC(=O)[C@@H](N)CCCNC(=N)N)C(=O)N[C@@H](CCCCN)C(=O)NCC(=O)NCC(=O)N[C@@H](CCCNC(=N)N)C(=O)N[C@@H](CCCNC(=N)N)C(=O)N[C@@H](CCCCN)C(=O)N[C@@H](CCCCN)C(=O)O (H-RGRKGGRRKK-OH) | 20 (≈ 24 µg/mL) | > 10000 | > 80 | > 80
8 | CC(=O)N[C@@H](CCCNC(=N)N)C(=O)NCC(=O)N[C@@H](CCCNC(=N)N)C(=O)N[C@@H](CCCCN)C(=O)NCC(=O)NCC(=O)N[C@@H](CCCNC(=N)N)C(=O)N[C@@H](CCCNC(=N)N)C(=O)N[C@@H](CCCCN)C(=O)N[C@@H](CCCCN)C(=O)O (Ac-RGRKGGRRKK-OH) | 20 (≈ 24.8 µg/mL) | > 10000 | > 80 | > 80
9 | CCCCCCCCCCCC(=O)N[C@@H](CCCNC(=N)N)C(=O)NCC(=O)N[C@@H](CCCNC(=N)N)C(=O)N[C@@H](CCCCN)C(=O)N[C@H](C(=O)N[C@H](C(=O)N[C@@H](CCCNC(=N)N)C(=O)N[C@@H](CCCNC(=N)N)C(=O)N[C@@H](CCCCN)C(=O)N[C@@H](CCCCN)C(=O)O)C(C)C)C(C)C (Lauroyl-RGRKVVRRKK-OH) | 6 (≈ 8.79 µg/mL) | > 10000 | 20 (≈ 29.3 µg/mL) | 10 (≈ 14.6 µg/mL)
